Measured values published in US4996225A, “Tri-phenyl alkane derivatives and their oestrogenic, anti-oestrogenic and progestanic uses” (Farmos Group Ltd., priority 1982, dated 1991).
Values belong to the compound of their own block, whether it stands above or below them.

Key:
oestrogen receptors = molecular target: T1, oestrogen receptors (Rattus norvegicus, UniProt P06211); assay: affinity for oestrogen receptors, competition with 3H-17-β-estradiol in rat uterus cytosol (dextran-charcoal method); type: binding; conditions: read-out: Estrogen receptor affinity (concentration of compound where 50% competition (inhibition) with 3H-estradiol occurred)
T1 construct: rat uterus cytosol preparation; from tissue; host or cells: rat uterus cytosol
T1 sequence (P06211 1-600): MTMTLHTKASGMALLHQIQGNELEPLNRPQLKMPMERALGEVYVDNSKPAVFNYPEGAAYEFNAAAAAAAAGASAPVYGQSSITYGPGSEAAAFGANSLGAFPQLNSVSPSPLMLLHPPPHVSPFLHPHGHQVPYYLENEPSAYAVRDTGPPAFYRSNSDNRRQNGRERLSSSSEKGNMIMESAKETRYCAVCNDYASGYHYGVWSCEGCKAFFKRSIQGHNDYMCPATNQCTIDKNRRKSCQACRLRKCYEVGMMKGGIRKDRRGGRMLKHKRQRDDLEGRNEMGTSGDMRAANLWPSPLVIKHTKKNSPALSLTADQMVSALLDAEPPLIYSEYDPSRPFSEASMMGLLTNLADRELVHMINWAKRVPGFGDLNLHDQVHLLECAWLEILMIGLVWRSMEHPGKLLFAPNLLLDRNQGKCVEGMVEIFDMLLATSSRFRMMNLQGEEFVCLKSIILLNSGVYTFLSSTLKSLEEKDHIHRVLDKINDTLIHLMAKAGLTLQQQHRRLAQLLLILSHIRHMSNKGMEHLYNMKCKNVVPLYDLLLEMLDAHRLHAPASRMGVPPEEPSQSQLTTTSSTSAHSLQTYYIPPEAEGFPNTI
Method: The affinity of the new compounds for oestrogen receptors was determined by the ability to compete with ^3 H-labelled 17-β-estradiol in rat uterus cytosol preparation. After incubation, receptor-bound and receptor-unbound ligands were separated by a known dextrancharcoal method.

immature mouse uterus [1] = assay: oestrogenic effect, uterus weight of immature mice; type: in vivo; conditions: for estrogenic effect of their own (in words): up to 5 mg/kg
Method: (§1) The oestrogen-antiestrogen (progesterone) effect of the new compounds in vivo was determined as follows: (1) The oestrogenic properties were determined by administering the new compounds, suspended in sesame oil, subcutaneously to 21 days old immature mice on three consecutive days. The mice were killed on the fourth day and the uterus was weighed. […] The weight correlates with the oestrogenic effect of the compound tested. […] In this case, the ability of the molecules to inhibit oestrogen-induced uterus weight increase was also investigated.

[2] = tested on: MCF-7 cell line (human mammary adenocarcinoma); assay: anti-tumour effect in vitro, growth of MCF-7 cell line (bioluminescence assay, intracellular ATP); type: cell-based; conditions: read-out: Antitumour effect against MCF-7 cell line (IC50 = concentration of compound where 50% inhibition of cell growth could be seen)
Method: The anti-tumour effect was studied in vitro as follows:
The amount of living cells after 4 h, 24 h and 48 h incubations were determined by bioluminescence assay (intracellular ATP determination).
inhibition of cell growth could be seen.

[3] = tested on: estradiol induced weight increase in immature mouse uterus; assay: antiestrogenic effect, inhibition of oestrogen-induced uterus weight increase in immature mice; type: in vivo; conditions: for inhibition of estradiol induced effect in mouse uterus / inhibition of estradiol-induced uterus weight increase: 5 mg/kg; for anti-estrogenic effect (in words): immature mouse uterus; for effect with estradiol (in words) / reduction in the weights of mice uterus, with estradiol: with estradiol 0.05 mg/kg; for inhibition of estradiol-induced uterus weight increase: estradiol 5 μg/kg
Method: as §1

immature mouse uterus [4] = assay: progestanic effect, uterus weight of immature mice (alone or with medroxyprogesterone acetate); type: in vivo; design: reduction in the weight of a mouse uterus, given alone / reduction in the weight of uterus with medroxyprogesterone / reduction in the weights of mice uterus, given alone: concentration or dose not given beside the values
[5] = tested on: DMBA-induced rat mammary adenocarcinomas; assay: antitumour effect in vivo against DMBA-induced rat mammary adenocarcinoma
Method: The anti-tumour effect was investigated in vivo against DMBA-induced rat mammary adenocarcinomas, transplantable mammary and ovarial adenocarcinoma and transplantable prostatic squamous cell carcinoma by the following methods:
Mammary adenocarcinomas were induced by DMBA in 35-40 days old female rats. […] Tumour size and numbers of tumours were evaluated twice a week. Tumour sizes in the control group, treated with solvent, were compared with the test groups.
The size refers to the width×height of the tumour. The growth rate is a difference between sizes compared with that of the first day of the treatment.

[6] = with medroxyprogesterone 0.06 mg/kg

- IC50 (oestrogen receptors): 0.1 to 1 µM
- IC50 [2]: 5 to 10 µM
Structure (SMILES): Oc1ccc([C@@H](c2ccccc2)[C@@H](CCCl)c2ccccc2)cc1 (relative stereo) [Compound 14, 4-chloro-1,2-diphenyl-1-(4-hydroxyphenyl)-butane]
- estrogenic effect: less than that of estradiol 0.05 mg/kg (immature mouse uterus [1]; 5 mg/kg): about 50%
- effect given alone: estrogenic (in words) (immature mouse uterus [1]): estrogenic
- increase in the weights of mice uterus, given alone (immature mouse uterus [1]): 50%
- estrogenic effect (in words) (immature mouse uterus [1]; immature mice, s.c., three days): could be seen only at the higher concentrations investigated
- inhibition of estradiol induced effect in mouse uterus [3]: 20%
- anti-estrogenic effect (in words) [3]: possessed anti-estrogenic effects
- effect with estradiol (in words) [3]: anti-
- reduction in the weights of mice uterus, with estradiol [3]: 20%

- IC50 (oestrogen receptors): 10 to 100 µM
- IC50 [2]: 5 to 10 µM
Structure (SMILES): CN(C)CCOc1ccc([C@@]2(c3ccccc3)OCC[C@@H]2c2ccccc2)cc1 (relative stereo) [Compound 16, 2,3-diphenyl-2-[4-[2-(N,N-dimethylamino)-ethoxy]phenyl]-tetrahydrofuran]
- estrogenic effect of their own (in words) (immature mouse uterus [1]): no estrogenic effect of their own

- IC50 (oestrogen receptors): 10 to 100 µM
Structure (SMILES): CN(C)CCOc1ccc([C@](O)(c2ccccc2)[C@H](CCO)c2ccccc2)cc1 (relative stereo) [Compound 17, 1,2-diphenyl-1-[4-[2-(N,N-dimethylamino)-ethoxy]phenyl]butane-1,4-diol]
- estrogenic effect of their own (in words) (immature mouse uterus [1]): no estrogenic effect of their own

- IC50 (oestrogen receptors): 1 to 10 µM
Structure (SMILES): COc1ccc(C(=C(CCO)c2ccccc2)c2ccccc2)cc1 [Compound 3, 1,2-diphenyl-1-(4-methoxyphenyl)-1-buten-4-ol]

- IC50 (oestrogen receptors): 0.1 to 10 µM
Structure (SMILES): OCCCC(=C(c1ccccc1)c1ccc(O)cc1)c1ccccc1 [Compound 6, 1,2-diphenyl-1-(4-hydroxyphenyl)-1-penten-5-ol]

- IC50 (oestrogen receptors): 1 to 10 µM
Structure (SMILES): OCC/C(=C(\c1ccccc1)c1ccc(O)cc1)c1ccccc1 [Compound 11, 1,2-diphenyl-1-(4-hydroxyphenyl)-1-buten-4-ol]
- estrogenic effect of their own (in words) (immature mouse uterus [1]): no estrogenic effect of their own
- reduction in the weight of a mouse uterus, given alone (immature mouse uterus [4]; given alone): 56%
- reduction in the weights of mice uterus, given alone (immature mouse uterus [4]; given alone, Table 2A): 56%
- interaction with medroxyprogesterone (in words) (immature mouse uterus [4]; with medroxyprogesterone): synergistic effect with medroxyprogesterone
- effect with medroxyprogesterone (in words) (immature mouse uterus [4]; [6]): no inhibition
- reduction in the weights of mice uterus with medroxyprogesterone, compared to control (immature mouse uterus [4]; [6]): 40%
- inhibition of estradiol induced effect in mouse uterus [3]: 31%
- effect given alone: antiestrogenic (in words) ([3]; given alone): anti-
- anti-estrogenic effect (in words) [3]: possessed anti-estrogenic effects
- effect with estradiol (in words) [3]: anti-
- reduction in the weights of mice uterus, with estradiol [3]: 31%

- IC50 (oestrogen receptors): 0.1 to 1 µM
- IC50 [2]: 5 to 10 µM
Structure (SMILES): CN(C)CCOc1ccc(/C(=C(/CCF)c2ccccc2)c2ccccc2)cc1 [Compound 21, 4-fluoro-1,2-diphenyl-1-[4-[2-(N,N-dimethylamino)ethoxy]phenyl]-1-butene]
- growth rate of the tumours (in words) ([5]; rat, in vivo): only the growth rate of the tumours was reduced
- increase in uterus weight (immature mouse uterus [1]; 5 mg/kg): ≤ 55%
- inhibition of estradiol-induced uterus weight increase [3]: 68-100%

Continued, compound first:

Structure (SMILES): OCC[C@H](c1ccccc1)[C@@](O)(c1ccccc1)c1ccc(O)cc1 (relative stereo) [Compound 1, 1,2-diphenyl-1-(4-hydroxyphenyl)-butane-1,4-diol]
- IC50 (oestrogen receptors): 1 to 10 µM

Structure (SMILES): OCCC(c1ccc(O)cc1)C(O)(c1ccccc1)c1ccc(O)cc1 (stereo not shown) [Compound 8, 1-phenyl-1,2-bis(4-hydroxyphenyl)-butane-1,4-diol]
- IC50 (oestrogen receptors): 1 to 10 µM

Structure (SMILES): Oc1ccc(C2CCOC2(c2ccccc2)c2ccc(O)cc2)cc1 (stereo not shown) [Compound 9, 2-phenyl-2,3-bis(4-hydroxyphenyl)-tetrahydrofuran]
- IC50 (oestrogen receptors): 0.1 to 1 µM
- effect given alone: estrogenic (in words) (immature mouse uterus [1]): estrogenic
- increase in the weights of mice uterus, given alone (immature mouse uterus [1]): 50%
- effect with estradiol (in words) [3]: not anti-
- reduction in the weights of mice uterus, with estradiol [3]: < 10%

Structure (SMILES): OCC/C(=C(/c1ccccc1)c1ccc(O)cc1)c1ccccc1 [Compound 10, 1,2-diphenyl-1-(4-hydroxypheny)-1-buten-4-ol]
- IC50 (oestrogen receptors): 0.1 to 1 µM

Structure (SMILES): CN(C)CCOc1ccc(/C(=C(\CCO)c2ccccc2)c2ccccc2)cc1 [Compound 12, 1,2-diphenyl-1-[4-[2-(N,N-dimethylamino)-ethoxy]phenyl]-1-buten-4-ol]
- antitumour effect against DMBA-induced mammary cancer (in words) ([5]; compared with compound 7): Antitumour effect less than that of compound 7
- IC50 (oestrogen receptors): 10 to 100 µM
- IC50 [2]: 1 to 5 µM

Structure (SMILES): Oc1ccc(/C(=C(/CCCl)c2ccccc2)c2ccccc2)cc1 [Compound 15, 4-chloro-1,2-diphenyl-1-(4-hydroxyphenyl)-1-butene]
- IC50 (oestrogen receptors): 1 to 10 µM
- effect given alone: estrogenic (in words) (immature mouse uterus [1]): estrogenic
- increase in the weights of mice uterus, given alone (immature mouse uterus [1]): 20%
- IC50 [2]: 5 to 10 µM
- inhibition of estradiol induced effect in mouse uterus [3]: 25%
- anti-estrogenic effect (in words) [3]: possessed anti-estrogenic effects
- effect with estradiol (in words) [3]: anti-
- reduction in the weights of mice uterus, with estradiol [3]: 25%

Structure (SMILES): CN(C)CCOc1ccc(/C(=C(\CCCl)c2ccccc2)c2ccccc2)cc1 [Compound 18, 4-chloro-1,2-diphenyl-1-[4-[2-(N,N-dimethylamino)ethoxy]phenyl]-1-butene]
- effect given alone: estrogenic (in words) (immature mouse uterus [1]): estrogenic
- increase in the weights of mice uterus, given alone (immature mouse uterus [1]): 20%
- effect with medroxyprogesterone (in words) (immature mouse uterus [4]; [6]): no effect
- IC50 [2]: 1 to 5 µM
- effect with estradiol (in words) [3]: not anti-
- reduction in the weights of mice uterus, with estradiol [3]: < 10%

Structure (SMILES): CN(C)CCOc1ccc(/C(=C(/CCI)c2ccccc2)c2ccccc2)cc1 [Compound 22, 4-iodo-1,2-diphenyl-1-[4-[2-(N,N-dimethylamino)ethoxy]phenyl]-1-butene]
- amount of new tumours (in words) ([5]; rat, in vivo): the amount of new tumours decreased
- growth rate of the tumours (in words) ([5]; rat, in vivo): the growth rate of the tumours decreased
- IC50 (oestrogen receptors): 0.1 to 1 µM
- increase in uterus weight (immature mouse uterus [1]; 5 mg/kg): ≤ 70%
- IC50 [2]: 1 to 5 µM
- inhibition of estradiol-induced uterus weight increase [3]: less than 67%

Structure (SMILES): CNCCOc1ccc(/C(=C(/CCCl)c2ccccc2)c2ccccc2)cc1 [Compound 23, 4-chloro-1,2-diphenyl-1-[4-[2-(N-methylamino)ethoxy]phenyl]-1-butene]
- growth rate of the tumours (in words) ([5]; rat, in vivo): only the growth rate of the tumours was reduced
- IC50 (oestrogen receptors): 1 to 10 µM
- increase in uterus weight (immature mouse uterus [1]; 5 mg/kg): ≤ 55%
- IC50 [2]: 1 to 5 µM
- inhibition of estradiol-induced uterus weight increase [3]: 68-100%
